Active and inactive are the calls of the source. The rule behind the calls is not given here.
Tests used:
[1] = Induction of hydroxyl radicals generation assessed as methyl radical formation by measuring DMPO/CH3 radical level at 50 uM in presence of H2O2 measured after 5 mins by ESR spectral analysis based EPR secondary radical spin-trapping method; type: functional
HepG2 = assay: Cytotoxicity against human HepG2 cells assessed as reduction in cell viability after 48 hrs by MTT assay; type: functional, cell-based; conditions: HepG2, 48 h
A549 [2] = assay: Induction of hydrogen peroxide-responsive hydroxyl radicals generation in human A549 cells at 7.5 uM pretreated for 3 hrs followed by 20 uM coumarin-cyanine probe 1 addition and measured after 0.5 hrs by fluorescence imaging assay; type: functional, cell-based
L02 [3] = assay: Cytotoxicity against human LO2 cells assessed as reduction in cell viability after 48 hrs by MTT assay; type: cell-based; conditions: for IC50: Homo sapiens, L02, 48 h
A549 [4] = assay: Cytotoxicity against human A549 cells assessed as reduction in cell viability after 48 hrs by MTT assay; type: functional, cell-based; conditions: A549, 48 h
A549 [5] = assay: Induction of hydrogen peroxide-responsive hydroxyl radicals generation in human A549 cells at 7.5 uM pretreated for 3 hrs followed by 2 uM rhodamine nitroxide probe 3 addition and measured after 12 hrs by fluorescence imaging assay; type: functional, cell-based
[6] = Induction of hydroxyl radicals generation assessed as DMPO/hydroxyl radical level at 50 uM in presence of H2O2 measured after 5 mins by ESR spectral analysis based EPR secondary radical spin-trapping method; type: functional
A549 [7] = assay: Induction of hydrogen peroxide-responsive hydroxyl radicals generation in human A549 cells at 2.5 to 7.5 uM pretreated for 3 hrs followed by 20 uM coumarin-cyanine probe 1 addition and measured after 0.5 hrs by fluorescence imaging assay; type: functional, cell-based
A549 [8] = assay: Induction of hydrogen peroxide-responsive hydroxyl radicals generation in human A549 cells at 7.5 uM pretreated for 3 hrs followed by 20 uM coumarin-cyanine probe 1 addition and measured after 0.5 hrs in presence of catalase by fluorescence imaging assay; type: functional, cell-based
L02 [9] = assay: Induction of hydrogen peroxide-responsive hydroxyl radicals generation in human LO2 cells at 7.5 uM pretreated for 3 hrs followed by 20 uM coumarin-cyanine probe 1 addition and measured after 0.5 hrs in presence of catalase by fluorescence imaging assay; type: cell-based; conditions: l02, 0.5 h
A549 [10] = assay: Cytotoxicity against human A549 cells assessed as induction of hydrogen peroxide-responsive hydroxyl radicals-mediated cell killing by measuring cell viability at 62.5 uM preincubated for 3 hrs followed by 50 uM H2O2 treatment for 45 mins and measured after 48 hrs by MTT assay (reference value: 75.8%); type: functional
L02 [11] = assay: Cytotoxicity against human LO2 cells assessed as induction of hydrogen peroxide-responsive hydroxyl radicals-mediated cell killing by measuring cell viability at 62.5 uM preincubated for 3 hrs followed by 100 uM H2O2 treatment for 45 mins and measured after 48 hrs by MTT assay; type: cell-based; conditions: l02, 62.5 µM
A549 [12] = assay: Cytotoxicity against human A549 cells assessed as reduction in cell viability co-treated with alpha-tocopherol after 48 hrs by MTT assay; type: functional, cell-based
A549 [13] = assay: Induction of hydrogen peroxide-responsive hydroxyl radicals generation in human A549 cells at 2.5 to 7.5 uM pretreated for 3 hrs followed by 2 uM rhodamine nitroxide probe 3 addition and measured after 12 hrs by fluorescence imaging assay; type: functional, cell-based

SMILES	Activity [1]	IC50 (HepG2)	Activity (A549 [2])	IC50 (L02 [3])	IC50 (A549 [4])	Activity (A549 [5])	Activity [6]	Activity (A549 [7])	Activity (A549 [8])	Activity (L02 [9])	Activity (A549 [10])	Activity (L02 [3]; human, l02, 48 h)	Activity (L02 [11])	Activity (A549 [12])	Activity (A549 [13])
O=C1C(O)=C(C2=C(Cl)C(=O)c3ccccc3C2=O)C(=O)c2ccccc21	Active	4.59 µM	Active	> 10 µM	4.25 µM	Active	Active								
O=C1C(Cl)=C(C2=C(Cl)C(=O)c3ccccc3C2=O)C(=O)c2ccccc21	Active	2.29 µM		> 10 µM	2.14 µM		Active	Active	inactive	Non-Toxic	52.6%	Non-Toxic	Non-Toxic	Active	Active
O=C1C=C(C2=CC(=O)c3ccccc3C2=O)C(=O)c2ccccc21	inactive	> 10 µM	inactive	> 10 µM	> 10 µM	inactive	inactive								
